In patent US20260053834A1, “COVALENT MODIFIERS OF AKT1 AND USES THEREOF” (Terremoto Biosciences, Inc., priority 2023, published 2026):

Experiments:
[1] = system: LAPC4 prostate cancer cells, which express the AKT1 E17K allele; experiment: Antiproliferative effects in LAPC4 cells (CellTiter Glo, 72 h); assay type: cell-based; conditions: Homo sapiens, LAPC4, 72 h, read-out: LAPC4 proliferation IC50: GeoMean IC50
Procedure, shortened: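 Cells grown in IMDM with 12% FBS, seeded at 1,000 cells/well and treated with compound dilutions in DMSO for 72 h. Intracellular ATP read by luminescence. IC50 from a log(inhibitor) vs. response Hill fit.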

AKT1 E17K = molecular target: T1, AKT1 E17K (Homo sapiens, UniProt P31749, E17K); experiment: Live cell target engagement by NanoBRET competitive probe displacement, AKT1 E17K; assay type: binding; conditions: transfected HEK293 cells, 2 h at 37° C., read-out: AKT1 E17K IC50: GeoMean IC50
T1 construct: expressed in transfected cells; host or cells: HEK293

AKT1 WT = molecular target: T2, AKT1 WT (Homo sapiens, UniProt P31749); experiment: Live cell target engagement by NanoBRET competitive probe displacement, AKT1 WT; assay type: binding; conditions: transfected HEK293 cells, 2 h at 37° C., read-out: AKT1 WT IC50: GeoMean IC50
T2 construct: expressed in transfected cells; host or cells: HEK293

AKT2 = molecular target: T3, AKT2 (Homo sapiens, UniProt P31751); experiment: Live cell target engagement by NanoBRET competitive probe displacement, AKT2; assay type: binding; conditions: transfected HEK293 cells, 2 h at 37° C., read-out: AKT2 IC50: GeoMean IC50
T3 construct: expressed in transfected cells; host or cells: HEK293
T3 sequence (P31751 whole entry): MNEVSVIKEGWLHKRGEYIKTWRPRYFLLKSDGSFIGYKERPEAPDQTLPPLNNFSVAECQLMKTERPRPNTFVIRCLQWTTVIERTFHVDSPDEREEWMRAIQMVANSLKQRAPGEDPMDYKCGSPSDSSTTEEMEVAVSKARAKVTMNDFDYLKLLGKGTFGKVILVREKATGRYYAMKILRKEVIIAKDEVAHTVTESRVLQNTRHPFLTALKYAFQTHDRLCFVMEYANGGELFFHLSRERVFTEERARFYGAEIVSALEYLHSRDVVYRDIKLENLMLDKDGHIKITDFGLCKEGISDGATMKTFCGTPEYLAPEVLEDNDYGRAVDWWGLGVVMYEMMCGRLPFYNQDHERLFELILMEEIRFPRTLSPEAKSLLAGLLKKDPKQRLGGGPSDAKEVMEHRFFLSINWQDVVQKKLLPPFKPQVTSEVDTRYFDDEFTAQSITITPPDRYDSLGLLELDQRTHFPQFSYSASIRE

T2 sequence (P31749 whole entry): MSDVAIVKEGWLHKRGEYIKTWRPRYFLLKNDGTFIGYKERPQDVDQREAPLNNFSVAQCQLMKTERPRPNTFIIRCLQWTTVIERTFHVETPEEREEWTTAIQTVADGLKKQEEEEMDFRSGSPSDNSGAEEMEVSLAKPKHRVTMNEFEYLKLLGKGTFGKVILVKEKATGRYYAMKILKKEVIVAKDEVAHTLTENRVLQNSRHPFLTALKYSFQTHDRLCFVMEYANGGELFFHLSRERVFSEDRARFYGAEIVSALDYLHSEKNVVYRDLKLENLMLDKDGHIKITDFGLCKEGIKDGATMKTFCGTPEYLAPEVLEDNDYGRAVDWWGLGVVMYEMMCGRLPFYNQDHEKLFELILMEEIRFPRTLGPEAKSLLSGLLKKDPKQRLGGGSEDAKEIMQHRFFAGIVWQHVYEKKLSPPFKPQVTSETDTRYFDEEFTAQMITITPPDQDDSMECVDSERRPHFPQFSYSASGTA
T1 sequence (P31749 whole entry E17K): as the sequence (P31749 whole entry) above, with E17K counted along it

| Structure (SMILES) | IC50 [1] [nM] | IC50 (AKT1 E17K) [nM] | IC50 (AKT1 WT) [nM] | IC50 (AKT2) [nM] |
| --- | --- | --- | --- | --- |
| Nc1ncccc1-c1nc2ccc(-n3cccn3)nc2n1-c1ccc2c(c1)CC[C@@H]2NC(=O)c1cc(C=O)c(O)c2nccn12 [Example 169, N-[(1S)-5-[2-(2-aminopyridin-3-yl)-5-(pyrazol-1-yl)imidazo[4,5-b]pyridin-3-yl]-2,3-dihydro-1H-inden-1-yl]-7-formyl-8-hydroxyimidazo[1,2-a]pyridine-5-carboxamide] | 100 to 2000 | ≥ 2000 | ≥ 2000 | ≥ 2000 |
| COc1cc(-n2cccn2)nc2c1nc(-c1cccnc1N)n2-c1ccc2c(c1)CC[C@@H]2NC(=O)c1ccc(O)c(C=O)c1 [Example 200, N-[(1S)-5-[2-(2-aminopyridin-3-yl)-7-methoxy-5-(pyrazol-1-yl)imidazo[4,5-b]pyridin-3-yl]-2,3-dihydro-1H-inden-1-yl]-3-formyl-4-hydroxybenzamide] | 100 to 2000 | 10 to 100 | 10 to 100 | 100 to 2000 |
| CN1CCN(c2ccc3nc(-c4cccnc4N)n(-c4ccc5c(c4)CC[C@@H]5NC(=O)c4ccc(O)c(C=O)c4)c3n2)CC1 [Example 38, (S)—N-(5-(2-(2-aminopyridin-3-yl)-5-(4-methylpiperazin-1-yl)-3H-imidazo[4,5-b]pyridin-3-yl)-2,3-dihydro-1H-inden-1-yl)-3-formyl-4-hydroxybenzamide] | 100 to 2000 | 10 to 100 | 100 to 2000 | ≥ 2000 |
| N#Cc1ccc2nc(-c3cccnc3N)n(-c3ccc4c(c3)CC[C@@H]4NC(=O)c3ccc(O)c(C=O)c3)c2n1 [Example 79, (S)—N-(5-(2-(2-aminopyridin-3-yl)-5-cyano-3H-imidazo[4,5-b]pyridin-3-yl)-2,3-dihydro-1H-inden-1-yl)-3-formyl-4-hydroxybenzamide] | ≥ 2000 | 100 to 2000 | 100 to 2000 | ≥ 2000 |
| CN(C)c1cc(C(=O)N[C@H]2CCc3cc(-n4c(-c5cccnc5N)nc5ccc(-n6cccn6)nc54)ccc32)cc(C=O)c1O [Example 228, N-[(1S)-5-[2-(2-aminopyridin-3-yl)-5-(pyrazol-1-yl)imidazo[4,5-b]pyridin-3-yl]-2,3-dihydro-1H-inden-1-yl]-3-(dimethylamino)-5-formyl-4-hydroxybenzamide] | 100 to 2000 | 10 to 100 | 100 to 2000 | ≥ 2000 |
| CC(=O)Nc1ccc(C(=O)N[C@H]2CCc3cc(-n4c(-c5cccnc5N)nc5ccc(-n6cccn6)nc54)ccc32)cc1C=O [Example 56, N-[(1S)-5-[2-(2-aminopyridin-3-yl)-5-(pyrazol-1-yl)imidazo[4,5-b]pyridin-3-yl]-2,3-dihydro-1H-inden-1-yl]-4-acetamido-3-formylbenzamide] | 10 to 100 | < 10 | 10 to 100 | 100 to 2000 |
| Nc1ncccc1-c1nc2ccc(-n3nccn3)nc2n1-c1ccc2c(c1)CC[C@@H]2NC(=O)c1cc(C=O)c(O)c(F)c1F [Example 118, (S)—N-(5-(2-(2-aminopyridin-3-yl)-5-(2H-1,2,3-triazol-2-yl)-3H-imidazo[4,5-b]pyridin-3-yl)-2,3-dihydro-1H-inden-1-yl)-2,3-difluoro-5-formyl-4-hydroxybenzamide] | 10 to 100 | 10 to 100 | 10 to 100 | 100 to 2000 |
| Cc1cnc(-c2ccc3nc(-c4cccnc4N)n(-c4ccc5c(c4)CC[C@@H]5NC(=O)c4cc(C=O)c(O)cc4F)c3n2)s1 [Example 185, N-[(1S)-5-[2-(2-aminopyridin-3-yl)-5-(5-methyl-1,3-thiazol-2-yl)imidazo[4,5-b]pyridin-3-yl]-2,3-dihydro-1H-inden-1-yl]-2-fluoro-5-formyl-4-hydroxybenzamide] | 10 to 100 | 10 to 100 | 10 to 100 | 100 to 2000 |
| Nc1ncccc1-c1nc2ccc(-c3ccccc3)nc2n1-c1ccc2c(c1)CCC2C(=O)Nc1ccc(O)c(C=O)c1 (centres unmarked) [Example 27, 5-[2-(2-aminopyridin-3-yl)-5-phenylimidazo[4,5-b]pyridin-3-yl]-N-(3-formyl-4-hydroxyphenyl)-2,3-dihydro-1H-indene-1-carboxamide] | 100 to 2000 | 10 to 100 | 100 to 2000 | 100 to 2000 |
| Nc1ncccc1-c1nc2ccc(-c3cnccn3)nc2n1-c1ccc2c(c1)CC[C@@H]2NC(=O)c1cc(C=O)c2[nH]ncc2c1 [Example 73, (S)—N-(5-(2-(2-aminopyridin-3-yl)-5-(pyrazin-2-yl)-3H-imidazo[4,5-b]pyridin-3-yl)-2,3-dihydro-1H-inden-1-yl)-7-formyl-1H-indazole-5-carboxamide] | 10 to 100 | < 10 | 10 to 100 | 100 to 2000 |
| Nc1ncccc1-c1nc2c(N3CCOCC3)cc(-n3cccn3)nc2n1-c1ccc2c(c1)CC[C@@H]2NC(=O)c1ccc(O)c(C=O)c1 [Example 224, N-[(1S)-5-[2-(2-aminopyridin-3-yl)-7-(morpholin-4-yl)-5-(pyrazol-1-yl)imidazo[4,5-b]pyridin-3-yl]-2,3-dihydro-1H-inden-1-yl]-3-formyl-4-hydroxybenzamide] | 10 to 100 | 10 to 100 | 10 to 100 | 100 to 2000 |
| Nc1ncccc1-c1nc2ccc(-n3cccn3)nc2n1-c1ccc2c(c1)CC[C@@H]2NC(=O)c1ccc(O)c(C=O)c1 [Example 33, (S)—N-(5-(2-(2-aminopyridin-3-yl)-5-(1H-pyrazol-1-yl)-3H-imidazo[4,5-b]pyridin-3-yl)-2,3-dihydro-1H-inden-1-yl)-3-formyl-4-hydroxybenzamide] | 10 to 100 | 10 to 100 | 10 to 100 | 100 to 2000 |
| Nc1ncc(F)cc1-c1nc2ccc(-n3cccn3)nc2n1-c1ccc2c(c1)CC[C@@H]2NC(=O)c1ccc(O)c(C=O)c1 [Example 163, (S)—N-(5-(2-(2-amino-5-fluoropyridin-3-yl)-5-(1H-pyrazol-1-yl)-3H-imidazo[4,5-b]pyridin-3-yl)-2,3-dihydro-1H-inden-1-yl)-3-formyl-4-hydroxybenzamide] | ≥ 2000 | 10 to 100 | 10 to 100 | ≥ 2000 |

Further lines, results first:

| IC50 [1] [nM] | IC50 (AKT1 E17K) [nM] | IC50 (AKT1 WT) [nM] | IC50 (AKT2) [nM] | Structure (SMILES) |
| --- | --- | --- | --- | --- |
| 10 to 100 | 10 to 100 | 10 to 100 | 100 to 2000 | Nc1ncccc1-c1nc2ccc(-c3cncnc3)nc2n1-c1ccc2c(c1)CC[C@@H]2NC(=O)c1ccc(O)c(C=O)c1 [Example 58, N-[(1S)-5-[2-(2-aminopyridin-3-yl)-5-(pyrimidin-5-yl)imidazo[4,5-b]pyridin-3-yl]-2,3-dihydro-1H-inden-1-yl]-3-formyl-4-hydroxybenzamide] |
| 10 to 100 | < 10 | 10 to 100 | 100 to 2000 | Nc1ncccc1-c1nc2ccc(-n3ccc(F)n3)nc2n1-c1ccc2c(c1)CC[C@@H]2NC(=O)c1cc(C=O)c(O)c(F)c1F [Example 125, (S)—N-(5-(2-(2-aminopyridin-3-yl)-5-(3-fluoro-1H-pyrazol-1-yl)-3H-imidazo[4,5-b]pyridin-3-yl)-2,3-dihydro-1H-inden-1-yl)-2,3-difluoro-5-formyl-4-hydroxybenzamide] |
| 10 to 100 | 10 to 100 | 10 to 100 | 10 to 100 | CC(=O)Nc1c(F)cc(C(=O)N[C@H]2CCc3cc(-n4c(-c5cccnc5N)nc5ccc(-c6ccccc6)nc54)ccc32)cc1C=O [Example 64, N-[(1S)-5-[2-(2-aminopyridin-3-yl)-5-phenylimidazo[4,5-b]pyridin-3-yl]-2,3-dihydro-1H-inden-1-yl]-4-acetamido-3-fluoro-5-formylbenzamide] |
| 10 to 100 | 10 to 100 | 10 to 100 | 100 to 2000 | Nc1ncccc1-c1nc2ccc(-n3ccc(F)n3)nc2n1-c1ccc2c(c1)CC[C@@H]2NC(=O)c1cc(C=O)c(O)cc1F [Example 135, N-[(1S)-5-[2-(2-aminopyridin-3-yl)-5-(3-fluoropyrazol-1-yl)imidazo[4,5-b]pyridin-3-yl]-2,3-dihydro-1H-inden-1-yl]-2-fluoro-5-formyl-4-hydroxybenzamide] |
| 10 to 100 | < 10 | 10 to 100 | 100 to 2000 | CN(C)C(=O)Nc1ccc(C(=O)N[C@H]2CCc3cc(-n4c(-c5cccnc5N)nc5ccc(-n6ccc(F)n6)nc54)ccc32)cc1C=O [Example 122, N-[(1S)-5-[2-(2-aminopyridin-3-yl)-5-(3-fluoropyrazol-1-yl)imidazo[4,5-b]pyridin-3-yl]-2,3-dihydro-1H-inden-1-yl]-4-[(dimethylcarbamoyl)amino]-3-formylbenzamide] |
| 10 to 100 | 10 to 100 | 100 to 2000 | 100 to 2000 | Nc1ncccc1-c1nc2ccc(-n3cc(CO)cn3)nc2n1-c1ccc2c(c1)CC[C@@H]2NC(=O)c1cc(C=O)c(O)cc1F [Example 138, (S)—N-(5-(2-(2-aminopyridin-3-yl)-5-(4-(hydroxymethyl)-1H-pyrazol-1-yl)-3H-imidazo[4,5-b]pyridin-3-yl)-2,3-dihydro-1H-inden-1-yl)-2-fluoro-5-formyl-4-hydroxybenzamide] |
| 10 to 100 | 10 to 100 | 100 to 2000 | 100 to 2000 | Nc1ncccc1-c1nc2ccc(-n3cccn3)nc2n1-c1ccc2c(c1)CC(F)(F)[C@@H]2NC(=O)c1ccc(O)c(C=O)c1 [Example 195, (R)—N-(5-(2-(2-aminopyridin-3-yl)-5-(1H-pyrazol-1-yl)-3H-imidazo[4,5-b]pyridin-3-yl)-2,2-difluoro-2,3-dihydro-1H-inden-1-yl)-3-formyl-4-hydroxybenzamide] |
